Target: T1, DCAF1 (1058-1396) (Homo sapiens, UniProt Q9Y4B6)
T1 construct: a fragment of a DCAF1 protein that includes amino acid residues A1058 to E1396; His6 (N, cleaved yes); made in house; host or cells: Sf9 insect cells (Bac-to-Bac baculovirus, pFastBacHT vector)
Assay: Surface plasmon resonance (SPR) binding assay, compound binding to DCAF1
Conditions: immobilized DCAF1 (1058-1396), steady state affinity model, 25° C.
Procedure: Binding affinities of specific exemplary compounds to DCAF1 (1058-1396), which is a fragment of a DCAF1 protein that includes amino acid residues A1058 to E1396 were determined by a surface plasmon resonance (SPR) assay. Briefly, purified DCAF1 (1058-1396) proteins were immobilized at a density of 9,000-11,000 resonance units (RUs) on a CMS sensor chip. Sensorgrams were recorded at different concentrations of compounds in multi-cycle kinetic format. Data were analyzed using a steady state affinity model through Biacore Evaluation Software to provide equivalent dissociation constants (Kd).
Binding affinities of compounds to DCAF1 were determined by a surface plasmon resonance (SPR) assay. Purified DCAF1 (1058-1396) proteins were immobilized on a CMS sensor chip, and a dose range of compound solutions were injected in multi-cycle kinetic format. Data were analyzed using a steady state model to provide equivalent dissociation constants (Kd).
Protein Expression and Purification: Human DCAF1 (1058-1396) (UniPro: Q9Y4B6) coding sequences were cloned into pFastBacHT vector and were expressed in Sf9 cells using Bac-to-Bac baculovirus expression system (Thermo Fisher Scientific). The expression construct for DCAF1 (1058-1396) included a N-terminal His6-tag to facilitate the purification. DCAF1 (1058-1396) proteins were obtained from supernatants of cell lysates and purified through sequential application of Ni affinity chromatography (Ni-NTA column, Bio-Rad), Tag removal using TEV protease, and size-exclusion chromatography (Superdex 200 column, GE Healthcare).
Surface plasmon resonance (SPR) binding assays: SPR studies were performed on a Biacore X100 plus or T200 instrument (GE Healthcare). Immobilization of purified DCAF1 (1058-1396) was carried out at 25° C. using a CMS sensor chip. The surface was pre-equilibrated in HBS-EP running buffer (10 mM HEPES, pH 7.4, 150 mM NaCl, 3 mM EDTA, 0.05% P20), before being activated with EDC/NHS. DCAF1 (1058-1396) was immobilized through amino groups to a density of 9,000-12,000 resonance units (RUs) on flow cell channel 2 (FC2), whereas flow cell channel 1 (FC1) was used as reference. Both DCAF1 immobilized and reference surfaces were deactivated with 1 M ethanolamine.
Interaction experiments were performed at 25° C. The compounds were prepared and serially diluted in HBS-EP running buffer containing final 2% DMSO (6-point two-fold serial dilution, 100 μM -3.125 μM final concentration of compounds). Compound Solutions were injected individually in multi-cycle kinetic format without regeneration (flow rate 30 μL/min, association time 60 s, dissociation time 60 s). Sensorgrams from reference surfaces and blank injections were subtracted from the raw data (double-referenced) and the data was solvent-corrected prior to analysis. Data were analyzed using a steady state affinity model through Biacore Evaluation Software to provide equivalent dissociation constants (Kd).

T1 sequence (Q9Y4B6 1058-1396): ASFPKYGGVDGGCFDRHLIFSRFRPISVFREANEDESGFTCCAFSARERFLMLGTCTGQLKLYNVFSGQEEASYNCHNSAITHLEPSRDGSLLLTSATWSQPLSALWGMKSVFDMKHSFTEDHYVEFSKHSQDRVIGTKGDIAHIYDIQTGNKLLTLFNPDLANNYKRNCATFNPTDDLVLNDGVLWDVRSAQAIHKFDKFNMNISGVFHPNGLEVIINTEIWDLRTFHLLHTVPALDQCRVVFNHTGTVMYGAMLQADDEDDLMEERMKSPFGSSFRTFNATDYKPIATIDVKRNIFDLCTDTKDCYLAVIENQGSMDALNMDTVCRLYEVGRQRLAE

| SMILES | Kd |
| --- | --- |
| Cc1ccc2c(c1)C1CN(C)CCC1N2C(=O)c1cc(F)ccc1Br (stereo not drawn) [CPD-065, (2-bromo-5-fluorophenyl) (2,8-dimethyl-1,2,3,4,4a,9b-hexahydro-5H-pyrido[4,3-b]indol-5-yl)methanone] | ≤ 40 µM |
| CCCCNCc1cccn1-c1ccccc1 [CPD-100, N-((1-phenyl-1H-pyrrol-2-yl)methyl)butan-1-amine] | 70 to 100 µM |
| CC(C)(C)c1ccc2[nH]c3c(c2c1)CN(CCc1cnn[nH]1)CC3 [CPD-011, 2-(2-(1H-1,2,3-triazol-5-yl)ethyl)-8-(tert-butyl)-2,3,4,5-tetrahydro-1H-pyrido[4,3-b]indole] | 40 to 70 µM |
| Cc1ccc2[nH]c3c(c2c1)CN(CC(O)COc1ccc(C(=O)O)cc1)CC3 (stereo not drawn) [CPD-056, 4-(2-hydroxy-3-(8-methyl-1,3,4,5-tetrahydro-2H-pyrido[4,3-b]indol-2-yl)propoxy)benzoic acid] | ≤ 40 µM |
| CCN1CCc2[nH]c3ccccc3c2C1 [CPD-043, 2-ethyl-2,3,4,5-tetrahydro-1H-pyrido[4,3-b]indole] | 40 to 70 µM |
| Clc1cc(CNCc2cnc[nH]2)cc2c1OCO2 [CPD-030, N-((1H-imidazol-5-yl)methyl)-1-(7-chlorobenzo[d][1,3]dioxol-5-yl)methanamine] | > 100 µM |
| Nc1nc(CCN2CCc3[nH]c4ccc(F)cc4c3C2)cs1 [CPD-053, 4-(2-(8-fluoro-1,3,4,5-tetrahydro-2H-pyrido[4,3-b]indol-2-yl)ethyl)thiazol-2-amine] | 40 to 70 µM |
| Cc1ccc2c(c1)c1c(n2C)CCN(C)C1 [CPD-022, 2,5,8-trimethyl-2,3,4,5-tetrahydro-1H-pyrido[4,3-b]indole] | > 100 µM |
| COc1cc(CNCc2cnc[nH]2)ccn1 [CPD-025, N-((1H-imidazol-5-yl)methyl)-1-(2-methoxypyridin-4-yl) methanamine] | > 100 µM |
| OCCOc1ccc(CNCc2cnc[nH]2)cc1 [CPD-031, 2-(4-((((1H-imidazol-5-yl)methyl)amino)methyl)phenoxy)ethan-1-ol] | > 100 µM |
| Cc1ccc2c(c1)C1CN(C)CCC1N2C(=O)/C=C/c1cccc(C(F)(F)F)c1 (stereo not drawn) [CPD-075, (E)-1-(2,8-dimethyl-1,2,3,4,4a,9b-hexahydro-5H-pyrido [4,3-b]indol-5-yl)-3-(3-(trifluoromethyl)phenyl)prop-2-en-1-one] | > 100 µM |
| Clc1ccc2[nH]c3c(c2c1)CN(CCc1cnn[nH]1)CC3 [CPD-008, 2-(2-(1H-1,2,3-triazol-5-yl)ethyl)-8-chloro-2,3,4,5-tetrahydro-1H-pyrido[4,3-b]indole] | 40 to 70 µM |
| Cc1cccc2c1[C@@H]1CN(C)CC[C@H]1N2 (racemic) [CPD-039, trans-2,9-dimethyl-2,3,4,4a,5,9b-hexahydro-1H-pyrido [4,3-b]indole] | > 100 µM |
| CN(CC1Cc2ccccc2CN1C)C(=O)/C=C/c1cc(CO)cs1 (stereo not drawn) [CPD-097, (E)-3-(4-(hydroxymethyl)thiophen-2-yl)-N-methyl-N-((2-methyl-1,2,3,4-tetrahydroisoquinolin-3-yl)methyl)acrylamide] | > 100 µM |
| Cc1ccc2[nH]c3c(c2c1)CN(C)CC3 [CPD-019, 2,8-dimethyl-2,3,4,5-tetrahydro-1H-pyrido[4,3-b]indole] | 40 to 70 µM |
| Cc1ccc2c(c1)c1c(n2C)CC[N+](C)(C)C1 [CPD-020, 2,2,5,8-tetramethyl-2,3,4,5-tetrahydro-1H-2λ^4-pyrido[4,3-b]indol-3-ylium] | > 100 µM |
| COc1ccc2cc(CNCc3cncn3CC(C)C)c(=O)[nH]c2c1 [CPD-104, 3-((((1-isobutyl-1H-imidazol-5-yl)methyl)amino)methyl)-7-methoxyquinolin-2(1H)-one] | 70 to 100 µM |
| Cc1ccc2c(c1)C1CN(C)CCC1N2C(=O)CCc1cccs1 (stereo not drawn) [CPD-082, 1-(2,8-dimethyl-1,2,3,4,4a,9b-hexahydro-5H-pyrido[4,3-b]indol-5-yl)-3-(thiophen-2-yl)propan-1-one] | > 100 µM |

| SMILES | Kd |
| --- | --- |
| CN(CC1Cc2ccccc2CN1C)C(=O)Cn1cnc2ccccc21 (stereo not drawn) [CPD-095, 2-(1H-benzo[d]imidazol-1-yl)-N-methyl-N-((2-methyl-1,2,3,4-tetrahydroisoquinolin-3-yl)methyl)acetamide] | 40 to 70 µM |
| O=C(CCN1CCc2[nH]c3ccccc3c2C1)N1CCOCC1 [CPD-048, 1-morpholino-3-(1,3,4,5-tetrahydro-2H-pyrido[4,3-b]indol-2-yl)propan-1-one] | ≤ 40 µM |
| O=C(CN1CCc2[nH]c3ccc(Cl)cc3c2C1)N1CCOCC1 [CPD-044, 2-(8-chloro-1,3,4,5-tetrahydro-2H-pyrido[4,3-b]indol-2-yl)-1-morpholinoethan-1-one] | 40 to 70 µM |
| OCCOc1cccc(CNCc2cnc[nH]2)c1 [CPD-103, 2-(3-((((1H-imidazol-5-yl)methyl)amino)methyl)phenoxy)ethan-1-ol] | > 100 µM |
| Cc1ccc(CNCc2cnc[nH]2)o1 [CPD-024, N-((1H-imidazol-5-yl)methyl)-1-(5-methylfuran-2-yl) methanamine] | > 100 µM |
| Cc1ccc2c(c1)C1CN(C)CCC1N2C(=O)C[C@@H](n1cccn1)C(F)(F)F (stereo partly drawn) [CPD-080, (R)-1-(2,8-dimethyl-1,2,3,4,4a,9b-hexahydro-5H-pyrido [4,3-b]indol-5-yl)-4,4,4-trifluoro-3-(1H-pyrazol-1-yl)butan-1-one] | > 100 µM |
| Cn1cccc1CNCC1CC(c2nncn2C)CC1O (stereo not drawn) [CPD-099, 2-((((1-methyl-1H-pyrrol-2-yl)methyl)amino)methyl)-4-(4-methyl-4H-1,2,4-triazol-3-yl)cyclopentan-1-ol] | 40 to 70 µM |
| Cc1nc(N)nc(C)c1CC(=O)NCC1Cc2ccccc2CN1C (stereo not drawn) [CPD-094, 2-(2-amino-4,6-dimethylpyrimidin-5-yl)-N-((2-methyl-1,2,3,4-tetrahydroisoquinolin-3-yl)methyl)acetamide] | 40 to 70 µM |
| CCn1ccnc1CN(C)CC1Cc2ccccc2CN1C (stereo not drawn) [CPD-091, 1-(1-ethyl-1H-imidazol-2-yl)-N-methyl-N-((2-methyl-1,2,3,4-tetrahydroisoquinolin-3-yl)methyl)methanamine] | 70 to 100 µM |
| CNC(=O)NC(=O)CCN1CCc2[nH]c3ccc(Cl)cc3c2C1 [CPD-050, 3-(8-chloro-1,3,4,5-tetrahydro-2H-pyrido[4,3-b]indol-2-yl)-N-(methylcarbamoyl)propanamide] | 70 to 100 µM |
| COc1cncc(CNCc2cnc[nH]2)c1 [CPD-027, N-((1H-imidazol-5-yl)methyl)-1-(5-methoxypyridin-3-yl) methanamine] | > 100 µM |
| Cc1ccc2[nH]c3c(c2c1)CN(CCc1cnn[nH]1)CC3 [CPD-013, 2-(2-(1H-1,2,3-triazol-5-yl)ethyl)-8-methyl-2,3,4,5-tetrahydro-1H-pyrido[4,3-b]indole] | 40 to 70 µM |
| Cc1ccc(CCn2c3c(c4ccccc42)CN(C)CC3)cn1 [CPD-059, 2-methyl-5-(2-(6-methylpyridin-3-yl)ethyl)-2,3,4,5-tetrahydro-1H-pyrido[4,3-b]indole] | 40 to 70 µM |
| Cc1ccc2c(c1)C1CN(C)CCC1N2S(=O)(=O)c1c([N+](=O)[O-])ccc(C)c1C (stereo not drawn) [CPD-078, 5-((2,3-dimethyl-6-nitrophenyl)sulfonyl)-2,8-dimethyl-2,3,4,4a,5,9b-hexahydro-1H-pyrido[4,3-b]indole] | > 100 µM |
| Cc1ccc(C(=O)N[C@H](C(=O)N2c3ccc(C)cc3C3CN(C)CCC32)C(C)C)cc1 (stereo partly drawn) [CPD-079, N-((2S)-1-(2,8-dimethyl-1,2,3,4,4a,9b-hexahydro-5H-pyrido [4,3-b]indol-5-yl)-3-methyl-1-oxobutan-2-yl)-4-methylbenzamide] | > 100 µM |
| Cc1cccc2c1[C@H]1CN(C)CC[C@H]1N2C (racemic) [CPD-042, cis-2,5,9-trimethyl-2,3,4,4a,5,9b-hexahydro-1H-pyrido[4,3-b]indole] | > 100 µM |
| Fc1ccc2[nH]c3c(c2c1)CN(CCc1cnn[nH]1)CC3 [CPD-012, 2-(2-(1H-1,2,3-triazol-5-yl)ethyl)-8-fluoro-2,3,4,5-tetrahydro-1H-pyrido[4,3-b]indole] | ≤ 40 µM |
| O=C(NCCn1ncc2ccccc2c1=O)C1Cc2ccccc2CN1 (stereo not drawn) [CPD-098, N-(2-(1-oxophthalazin-2(1H)-yl)ethyl)-1,2,3,4-tetrahydroisoquinoline-3-carboxamide] | 40 to 70 µM |
